From patent US5593970A, “Heterocyclic anthracycline analogs” (priority 1994, dated 1997)
“Also recorded” adds a separate entry of the source. Where two headings read alike, the source gives them in different places.

How the values were obtained:
HT29 [1] = assay: Soft agar colony formation disk diffusion assay; format: cell-based, human
Excerpt: A more elaborate version of this fundamental assay, the soft agar colony formation disk diffusion assay was used. […] The effect of the test drug against tumoral cells could be measured by its inhibitory capacity against colony formation after the delivery of the compound, in different concentrations on an filter disk(4). A modified technique of this assay was used in order to investigate the antiproliferative activity of candidate compounds. Tumoral cells from solid tumors and ascitic lines were plated separately in a two layer agar matrix. Cell lines to be tested were suspended in an upper layer of 0.4% Noble agar (Difco#00142-01) in RPMI-1066 (Gibco#3201875) at a yield varying between 10^4 to 2×10^5 cells per 60 mm Petri dish. Plating efficiency was determined for each line in order to achieve an optimal number of colonies per dish. […] The bottom layer consisted of 0.8% Noble agar, 0.8% Tryptic Soy Broth (difco#0037001)in CMRL-1066/Fischer's. The bottom layers were used within 2 and 9 days of preparation. Plated dishes (bottom layer of agar, upper layer of cells and administered drug were incubated in humidified atmosphere at 37° C., 5% CO2 for 10-20 days depending upon the time necessary to observe adequate colonies (defined as a cell aggregate of more than 50 cells) both control and drug inhibited. Drugs were administered on a paper filter disk (Whatman No. 1) of 6.5 mm diameter placed on the upper layer at 1/3 distance from the edge of the dish. The anti-clonogenic activity of the compounds was measured as the zone of inhibition from the disk edge to the most proximal colonies. This zone of inhibition was checked on an inverted microscope (40×) and was measured with a micrometer mounted in the eyepiece. The ocular micrometer was calibrated with a stage micrometer set for a particular combination of ocular and objective lenses. […] We made a modification of the initial technique by not plating a solid tumor and a leukemia simultaneously in the same Petri dish. […] HUMAN TUMORS. […] LS180 (13) and BE1(14) were obtained from the Oncology Dept. of the Montreal General Hospital. […] Cell lines were routinely passaged twice a week by trypsinization and maintained in 25, or 75-sq. cm Falcon Plastic flasks at 37° C., 5% CO2 in humidified atmosphere. Both compounds were dissolved in DMSO (1 mg/100 ul) and brought to final volume (250 ul) with Millipore deionized sterile water. Further dilutions were made with […] volume of 25 ul of freshly prepared solution was placed on the filter disk and allowed to dry.

SKOV3 = assay: Microculture tetrazolium assay; format: cell-based; settings: read-out: IC50
T47D = assay: Microculture tetrazolium assay; format: cell-based; settings: read-out: IC50
HT29 [2] = assay: Microculture tetrazolium assay; format: cell-based; settings: read-out: IC50
tumor cell lines = assay: Tumor clonogenic assay, overall; format: cell-based
Excerpt: For the IN VITRO test, we chose a tumor clonogenic assay which measures the ability of tumoral cells to form colonies (multicellular growth units) as a result of cell division in semisolid agar support (2,3). A more elaborate version of this fundamental assay, the soft agar colony formation disk diffusion assay was used. This assay defines the relative activity of one particular drug versus a tumoral cell line type. The effect of the test drug against tumoral cells could be measured by its inhibitory capacity against colony formation after the delivery of the compound, in different concentrations on an filter disk(4).
A modified technique of this assay was used in order to investigate the antiproliferative activity of candidate compounds. Tumoral cells from solid tumors and ascitic lines were plated separately in a two layer agar matrix. Cell lines to be tested were suspended in an upper layer of 0.4% Noble agar (Difco#00142-01) in RPMI-1066 (Gibco#3201875) at a yield varying between 10^4 to 2×10^5 cells per 60 mm Petri dish. Plating efficiency was determined for each line in order to achieve an optimal number of colonies per dish. Plates were examined before drug administration to confirm a uniform dispersion of single cells. The bottom layer consisted of 0.8% Noble agar, 0.8% Tryptic Soy Broth (difco#0037001)in CMRL-1066/Fischer's. The bottom layers were used within 2 and 9 days of preparation. Plated dishes (bottom layer of agar, upper layer of cells and administered drug were incubated in humidified atmosphere at 37° C., 5% CO2 for 10-20 days depending upon the time necessary to observe adequate colonies (defined as a cell aggregate of more than 50 cells) both control and drug inhibited. Drugs were administered on a paper filter disk (Whatman No. 1) of 6.5 mm diameter placed on the upper layer at 1/3 distance from the edge of the dish. The anti-clonogenic activity of the compounds was measured as the zone of inhibition from the disk edge to the most proximal colonies. This zone of inhibition was checked on an inverted microscope (40×) and was measured with a micrometer mounted in the eyepiece. The ocular micrometer was calibrated with a stage micrometer set for a particular combination of ocular and objective lenses.
200 units of activity are equivalent to 6.5 mm distance from the disk edge to the first colonies (5). […] We made a modification of the initial technique by not plating a solid tumor and a leukemia simultaneously in the same Petri dish. Anti-clonogenic tests performed on leukemia cell line have helped in the discovery of the majority of current clinically used cytostatic drugs. Our tests on solid tumor lines (animal or human) may help define active compounds with solid tumor specificity. This specific activity would be indicated by a higher level of cloning inhibition in solid tumors versus leukemias (6).

SC Lung = assay: NCI assay, average per cancer type; settings: SC Lung
Colon = assay: NCI assay, average per cancer type; settings: Colon
Ovarian = assay: NCI assay, average per cancer type; settings: Ovarian

IC50 (SKOV3; Homo sapiens, SK-OV-3, SKOV3) | IC50 (T47D; Homo sapiens) | IC50 (HT29 [2]; Homo sapiens, HT-29, HT29) | Compound | zone of inhibition (HT29 [1]; 10 μg/DISK) | activity and specificity in words (tumor cell lines) | zone of inhibition (HT29 [1]; 100 μg/DISK) | IC50 (SKOV3; SKOV3) | IC50 (T47D) | IC50 (HT29 [2]; HT29) | activity and specificity in words (tumor cell lines; listed as BCH 710) | Average LOG10 GI50 (SC Lung) | Average LOG10 GI50 (Colon) | Average LOG10 GI50 (Ovarian)
2.84 µM | 71 µM | 2.18 µM | COC(=O)[C@H]1CC2=C(C(=O)c3c(cc4ccccc4c3O)C2=O)[C@H](O[C@H]2C[C@H](NC(=O)C(F)(F)F)[C@H](O)[C@H](C)O2)O1 (mixture of isomers) [BCH-692, (1'S,1S,3R) and (1'S,1R,3S) Methyl[11-hydroxy-1-(2',3',6'-trideoxy-3'-trifluoroacetamido-4'-hydroxy-L-lyxohexopyranose)-5,12-dioxo-3,4,5,12-tetrahydro-anthraceno[2,3-c]pyran-3-yl]formate] | 105.0 ± 5.0 Zone Units | most active; also recorded: Good broad spectrum activity |  |  |  |  |  |  |  | 
 |  |  | 3-(2-acetoxy-1-propeneketal)aceto-6-acetoxy-1-hydroxy-1,2,3,4-tetrahydro-(2-oxygen)naphtacene-5,12-dione and 3-(2-acetoxy-1-propeneketal)-aceto-11-acetoxy-1-hydroxy-1,2,3,4-tetrahydro-(2-oxygen)naphtacene-5,12-dione [BCH-710] | 30.0 ± 8.4 Zone Units | most active | 69.0 ± 30.0 Zone Units | 3.98 µM | 3.57 µM | 1.79 µM | specificity for the MATB/ADR rat breast ADR resistant adenocarcinoma and mouse ovarian reticulum cell sarcoma |  |  | 
4.19 µM |  |  | CCOC(=O)[C@H]1CC2=C(C(=O)c3cc4ccccc4c(O)c3C2=O)[C@H](O[C@H]2C[C@H](NC(=O)C(F)(F)F)[C@H](O)[C@H](C)O2)O1 [BCH-684, (1'S,1S,3R)Ethyl[6-hydroxy-5,12-dioxo-1-(3'-trifluoroacetamido-1-daunosaminyl)-3,4,5,12-tetrahydroanthraceno(2,3-C)pyran-3-yl]formate] | 137.2 ± 21.5 Zone Units | most active; also recorded: Good broad spectrum activity | 170.8 ± 86.2 Zone Units |  |  |  |  |  |  | 
1.27 µM | 2.25 µM | 0.301 µM | COC(=O)[C@@H]1CC2=C(C(=O)c3c(cc4ccccc4c3O)C2=O)[C@@H](O[C@H]2C[C@H](NC(=O)C(F)(F)F)[C@H](O)[C@H](C)O2)O1 [BCH-691, (1'S,1R,3S)-Methyl-{11-hydroxy-1-(2',3',6'-trideoxy-3'-trifluoroacetamido-4'-hydroxy-L-lyxoheoxpyranose)-5,12-dioxo-3,4,5,12-tetrahydroanthraceno[2,3-c]pyran-3-yl}formate] | 137.0 ± 21.2 Zone Units | most active; also recorded: Good broad spectrum activity | 198.0 ± 21.2 Zone Units |  |  |  |  |  |  | 
 |  |  | Methyl(11-hydroxy-5,12-dioxo-3,4,5,12-tetrahydroanthraceno[2,3-c]pyran-3-yl)ketone and Methyl(5-hydroxy-5,12-dioxo-3,4,5,12-tetrahydroanthraceno[2,3-c]pyran-3-yl)ketone [BCH-687] | 61.0 ± 12.2 Zone Units | most active; also recorded: responded well | 150.4 ± 25.3 Zone Units |  |  |  |  | -5.09 ± 0.25 log molar | -4.95 ± 0.28 log molar | -4.94 ± 0.37 log molar

Compound | IC50 (SKOV3; Homo sapiens, SK-OV-3, SKOV3) | IC50 (T47D; Homo sapiens) | IC50 (HT29 [2]; Homo sapiens, HT-29, HT29) | zone of inhibition (HT29 [1]; 10 μg/DISK) | activity and specificity in words (tumor cell lines) | zone of inhibition (HT29 [1]; 100 μg/DISK) | IC50 (SKOV3; SKOV3) | IC50 (T47D) | IC50 (HT29 [2]; HT29) | activity and specificity in words (tumor cell lines; listed as BCH 710) | Average LOG10 GI50 (SC Lung) | Average LOG10 GI50 (Colon) | Average LOG10 GI50 (Ovarian)
CC(=O)Oc1c2c(c(O)c3ccccc13)C(=O)C1=C(C2=O)C(O)OC(C(C)=O)C1 (stereo not shown) [BCH-704, Methyl(11-acetoxy-1,6-dihydroxy-5,12-dioxo-3,4,5,12-tetrahydroanthraceno[2,3-c]pyran-3-yl)ketone] | 16.4 µM | 11.8 µM | 10.7 µM | 39.6 ± 12.9 Zone Units | most active; also recorded: Specificity for breast cancer | 152.5 ± 43.1 Zone Units |  |  |  |  |  |  | 
